Results from patent US20130052134A1, “PEG-PLGA-PLL POLYMER AND METHOD FOR PREPARING AND USING THE SAME AS THE DRUG AND GENE CARRIER” (Shanghai Cancer Institute, priority 2009, published 2013).

System: MDA-MB-231 mammary cancer
Assay: Therapeutic test in mice bearing MDA-MB-231 mammary cancer (tumor volume)
Type: in vivo, nude mice
Details: tail intravenous injection once every 4 days; treatment duration 36 days
Protocol: 0.2 ml of MDA-MB-231 mammary cancer cells (2×10^5) was subcutaneously injected to the axillary region near the forelimb of nude mice, and 2 weeks later, the tumor model was successfully established.
In the therapeutic test, corresponding normal saline, free mitoxantrone, drug-loaded mPEG-PLGA-PLL nanoparticles and drug-loaded mPEG-PLGA-PLL-RGD nanoparticles were given once every 4 days through tail intravenous injection, the tumor volume was subsequently measured, and the treatment duration was 36 days.

Structure (SMILES): O=C1c2c(O)ccc(O)c2C(=O)c2c(NCCNCCO)ccc(NCCNCCO)c21 [free mitoxantrone chloride, mitoxantrone chloride]
- tumor inhibition rate: 10.32%
